Source: US7850984B2, “Protection of the female reproductive system from natural and artificial insults” (The General Hospital Corporation, priority 2000, dated 2010)

Key:
oocytes [1] = assay: In vitro oocyte culture with or without doxorubicin, apoptosis; format: cell-based, mouse; conditions: 200 nM DXR, 24 hours, wild-type versus ASMase-deficient oocytes
Method: In addition to assessments of cellular morphology and caspase activation, some oocytes in each group are processed for DNA cleavage analysis as an endpoint for cell death using the Trevigen Comet Assay kit.
Female mice (43 days of age post-partum; Charles River Laboratories, Wilmington, Mass.) are superovulated with 10 IU of equine chorionic gonadotropin (eCG orPMSG) followed by 10 IU of human chorionic gonadotropin (hCG) 48 h later. Mature oocytes are collected from the oviducts 16 h after hCG injection. Cumulus enclosed oocytes are denuded by a 1-min incubation in 80 IU/ml of hyaluronidase, followed by three washes with culture medium. The medium used for all culture experiments is human tubal fluid (Irvine Scientific, Santa Ana, Calif.) supplemented with 0.5% bovine serum albumin (BSA).
Oocytes are cultured in 0.1 ml drops of culture medium (8-10 oocytes/drop) under paraffin oil and incubated with or without DXR (200 nM) and/or fumonisin-B1, sphingosine-1-phosphate or benzyloxycarbonyl-Val-Ala-Asp-fluoromethylketone (zVAD-FMK) for 24 h at 37° C. in a humidified atmosphere of 5% CO2-95% air. […] The percentage of oocytes that go through apoptosis out of the total number of oocytes cultured per drop in each experiment is then determined, and all experiments are independently repeated four to ten times with different mice.

oocytes [2] = conditions: female mouse oocytes; Perez et al. (1997); cited from earlier work
[3] = test system: germ cells of wild-type fetal ovaries (e13.5); assay: Fetal ovary culture without hormonal support, germ cell survival; format: cell-based, mouse; conditions: wild-type fetal ovaries, 72 hours in vitro without hormonal support; FB1 5-500 μM; S1P increasing concentrations
Method: To determine the basis of the extensive oocyte hyperplasia in ASMase −/− neonates, fetal ovaries are harvested from wild-type and mutant mice at embryonic day 13.5 (e13.5) for in vitro culture as a model to recapitulate the events surrounding germline death that occurs as a normal component of female gametogenesis. A time-dependent activation of programmed cell death is observed in the germline of wild-type fetal ovaries cultured without hormonal support for up to 72 hours (FIG. 2A). […] These findings indicate that there exists an ovarian-intrinsic cell death defect in the ASMase-deficient mouse, and point to enhanced survival of the developing germline during oogenesis as the mechanism underlying the enlarged oocyte pool seen in mutant females at birth.
Equivalent levels of in vitro germ cell survival are obtained by either ASMase gene knockout (FIG. 2A) or by S1P treatment (FIG. 2B).

oocytes [4] = assay: Microinjection of recombinant protein into single oocytes, apoptosis; format: cell-based, mouse; conditions: wild-type oocytes; ASMase: six picoliters of a 1 mg/ml stock
Method: Human recombinant acid sphingomyelinase is synthesized and purified as described by He et al., Biochim. Biophys. Acta 1432, 251 (1999), incorporated herein by reference in its entirety. Six picoliters of vehicle or of a 1 mg/ml stock of the enzyme are microinjected into single oocytes using a Zeiss Axiovert 135 inverted microscope equipped with Narishige micromanipulators and a PLI-100 pico-injector. Oocytes that survive the microinjection procedure (>75%) are then cultured and assessed for the occurrence of apoptosis. Furthermore, microinjection of human recombinant Bax protein into single oocytes and assessments of apoptosis are made as described by Perez, et al. (1997) id. Microinjection of human recombinant Bax protein into oocytes duplicates the pro-apoptotic effects of both human recombinant ASMase microinjection and anti-cancer drug treatment (FIG. 3E).

COc1cccc2c1C(=O)c1c(O)c3c(c(O)c1C2=O)C[C@@](O)(C(=O)CO)C[C@@H]3O[C@H]1C[C@H](N)[C@H](O)[C@H](C)O1 [DXR, doxorubicin, reference compound]
apoptotic event in oocytes (oocytes [1]): elicited in wild-type, but not ASMase-deficient, oocytes | oocyte cell death on in vitro exposure (oocytes [2]): undergo a type of cell death, referred to as apoptosis

CCCC[C@@H](C)[C@@H](OC(=O)C[C@@H](CC(=O)O)C(=O)O)[C@H](C[C@@H](C)C[C@H](O)CCCC[C@@H](O)C[C@H](O)[C@H](C)N)OC(=O)C[C@@H](CC(=O)O)C(=O)O [FB1, fumonisin-B1, reference compound]
germ cell survival / germ cell apoptosis in cultured fetal ovaries [3]: does not alter survival rates in the female germline

human recombinant Bax: human recombinant Bax protein microinjected into single oocytes
apoptosis after microinjection versus vehicle-injected oocytes (oocytes [4]): significant (P<0.05) increase in apoptosis

B1: human recombinant ASMase: human recombinant acid sphingomyelinase enzyme microinjected into single oocytes (protein, UniProt P17405 47-631, looked up)
Sphingomyelin …: LALSDSRVLWAPAEAHPLSPQGHPARLHRIVPRLRDVFGWGNLTCPICKGLFTAINLGLKKEPNVARVGSVAIKLCNLLKIAPPAVCQSIVHLFEDDMVEVWRRSVLSPSEACGLLLGSTCGHWDIFSSWNISLPTVPKPPPKPPSPPAPGAPVSRILFLTDLHWDHDYLEGTDPDCADPLCCRRGSGLPPASRPGAGYWGEYSKCDLPLRTLESLLSGLGPAGPFDMVYWTGDIPAHDVWHQTRQDQLRALTTVTALVRKFLGPVPVYPAVGNHESTPVNSFPPPFIEGNHSSRWLYEAMAKAWEPWLPAEALRTLRIGGFYALSPYPGLRLISLNMNFCSRENFWLLINSTDPAGQLQWLVGELQAAEDRGDKVHIIGHIPPGHCLKSWSWNYYRIVARYENTLAAQFFGHTHVDEFEVFYDEETLSRPLAVAFLAPSATTYIGLNPGYRVYQIDGNYSGSSHVVLDHETYILNLTQANIPGAIPHWQLLYRARETYGLPNTLPTAWHNLVYRMRGDMQLFQTFWFLYHKGHPPSEPCGTPCRLATLCAQLSARADSPALCRHLMPDGSLPEAQSLWPRPLFC
apoptosis after microinjection versus vehicle-injected oocytes (oocytes [4]): significant (P<0.05) increase in apoptosis
